The results in this text go back to patent US12234216B2, “Isotopologues salts, crystalline forms, stereoisomers, of methylone and ethylone and methods of use thereof” (Terran Biosciences Inc., priority 2021, dated 2025).

Where a name gives a salt, the structure may show the parent alone.

Usually Solubility stands for the dissolved amount per volume that the medium holds. A low value points to a poorly soluble substance.

For data set [1], the system named is participants diagnosed with at least moderate post-traumatic stress disorder (PTSD). Nature of the data set: Double-blind, randomized, placebo-controlled clinical trial of methylone-assisted psychotherapy in PTSD. The class given is in vivo, human. The method, then: A multicenter, randomized, double-blind, placebo-controlled trial is conducted to assess the efficacy and safety of methylone-assisted psychotherapy versus psychotherapy with placebo control in participants diagnosed with at least moderate post-traumatic stress disorder (PTSD).
This multicenter, randomized, double-blind, placebo-controlled trial is conducted at various sites in the United States with IRB approval from each study site. A flexible dose of methylone hydrochloride salt or placebo, followed by a supplemental half-dose unless contraindicated by patient's previous response or medical history, is also administered during the Treatment Period with psychotherapy in at least 3 blinded monthly Experimental Sessions. The Supplemental Dose extends the duration of drug effects on the participants during an Experimental Session. Methylone test groups are further subdivided into specific groups receiving only racemic methylone hydrochloride salt, S-methylone hydrochloride salt, or R-methylone hydrochloride salt. An optional Risk Evaluation and Mitigation Strategy (REMS) Protocol may be implemented for the racemic methylone, S-methylone, and placebo-groups. The Treatment Period lasts for approximately 12 weeks. During the Treatment Period, each Experimental Session is followed by three Intervening Sessions of non-drug psychotherapy. Each Experimental Session involves an overnight stay. The Primary Outcome measure, the change in Clinician Administered PTSD Scale for DSM-5 (CAPS-5), is determined by a blinded Independent Rater (IR) pool multiple times throughout the study. The study consists of separate periods for each participant. Initially, prospective participants undergo a Screening Period involving an initial eligibility assessment, a medical history intake, informed consent, and enrollment of eligible participants. Next, a Preparation Period is undertaken for enrolled participants involving medication tapering and clinical baseline assessments to confirm each participant meets enrollment criteria. As part of the Preparation Period, a detailed assessment of co-morbidities to PTSD is recorded. Participants may remain on prescribed courses of selective serotonin reuptake inhibitor (SSRI) or serotonin and norepinephrine reuptake inhibitor (SNRI) treatment. Dosages and/or frequency of administration of a prescribed SSRI or SNRI may be adjusted to fit within study parameters. Participants may be required to taper a prescribed course of medication in order to maintain eligibility within the study. The Treatment Period consists of three monthly Experimental Sessions and associated Intervening Sessions of integrative behavioral psychotherapy. The Treatment Period lasts approximately 12 weeks. Following the Treatment Period is a Follow-up Period and Study Conclusion. During the Follow-up Period and Study Conclusion, participants complete 4 weeks with no study visits, followed by a Study Conclusion visit.
This study compares the effects of three blinded Experimental Sessions of psychotherapy in combination with flexible doses of methylone or placebo administered as described below. Non-drug preparatory and intervening psychotherapy sessions are also included. Patient's weight is determined for dosage calculation. Initial dose is 100 mg unless this will result in a dosage of less than 1.5 mg/kg of patient weight. Initial dose thereby adjusted upward in 25 mg increments to deliver the lowest dose possible of at least 1.5 mg/kg of patient weight. Initial dose for Experimental Session 2 and 3 is cumulative dose calculated by adding the initial dose plus REMS protocol dose used the previous Experimental Session for each patient.
Randomization occurs prior to the initiation of Experimental Session 1. Each participant is provided the next randomized number in a sequence by a blinded study monitor. […]

The nature of data set [2]: Solubility screen (solvent aliquots, visual inspection). The class given is physicochemical. The method, then:
The experiments were carried out by adding the test solvent in aliquots to weighed portions of solid. Whether dissolution had occurred was judged by visual inspection after addition of each solvent aliquot. Solubility numbers recorded in Table 4 were calculated by dividing the weight of the sample by the total amount of solvent used to dissolve the sample. The actual solubilities may be greater than the numbers calculated because of the use of solvent aliquots that were too large or because of slow dissolution rates. All solubility measurements were carried out at room temperature unless noted otherwise.

The mark [3] stands for this setting: Study Conclusion, vs placebo-treated controls.

With `CNC(C)C(=O)c1ccc2c(c1)OCO2` (racemic) [(rac)-Methylone Hydrochloride, 3,4-methylenedioxy-N-methylcathinone hydrochloride], in data set [1] (Intervening Session 1C, 2C, 3C and Study Conclusion), the “CAPS-5 assessments compared to placebo-treated controls” value was “Significant improvements in CAPS-5 assessments”. Moreover, in data set [1] (Study Conclusion), the “daytime sleepiness as measured by ESS” value is “significant improvement in lessening daytime sleepiness”. The “clinician-rated functional impairment score as measured by SDS” value in data set [1] (setting [3]) is given as “significant improvement in clinician-rated functional impairment score”. Further, the “depression as measured by HAM-D” value in data set [1] (setting [3]) is given as “significant improvement depression”. Also, the “change in CAPS-5 assessment compared to the placebo group” value in data set [1] (Study Conclusion, 100-200 mg p.o. initial dose, 3 Experimental Sessions with psychotherapy) is recorded as “significant mean reduction in CAPS-5 assessment”. Also, the “Solubility” value came to 48 mg/mL in data set [2] (MeOH, room temperature) and 45 mg/mL in data set [2] (MeOH/CHCl3 50/50, room temperature).
